# Non-standard residues stand in square brackets, D forms with d. Residues, ends and D or L forms follow the SMILES beside them.
# How the values were obtained:
# human GHRH receptor = molecular target: T1, human GHRH receptor (Homo sapiens, UniProt Q02643); experiment: 125I-GHRH competitive binding assay in BHK cell membrane preparations; details: in comparison with hGHRH(1-29)NH2; ratio IC50 hGHRH(1-29)-NH2/IC50 analog
# T1 construct: expressed in transfected cells; host or cells: BHK (baby hamster kidney) 570 cells, membrane preparations
# T1 sequence (Q02643 23-423): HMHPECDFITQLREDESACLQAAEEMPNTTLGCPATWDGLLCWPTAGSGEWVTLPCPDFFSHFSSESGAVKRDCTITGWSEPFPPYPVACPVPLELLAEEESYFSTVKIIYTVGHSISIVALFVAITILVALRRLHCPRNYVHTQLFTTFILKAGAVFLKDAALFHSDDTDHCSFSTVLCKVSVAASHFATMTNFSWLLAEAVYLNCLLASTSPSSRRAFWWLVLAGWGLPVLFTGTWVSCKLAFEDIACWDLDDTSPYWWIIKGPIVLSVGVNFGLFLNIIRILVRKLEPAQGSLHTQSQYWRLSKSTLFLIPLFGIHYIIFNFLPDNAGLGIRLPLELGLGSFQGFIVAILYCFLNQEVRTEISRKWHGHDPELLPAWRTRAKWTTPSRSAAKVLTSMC
# Method: Non specific binding was determined in presence of 1 μM hGHRH(1-29)NH2. Incubation was carried out at equilibrium (23° C., 60 min) and stopped by centrifugation (12,000 g, 5 min, at 4° C.). The radioactivity content in pellets was determined by gamma counting. The affinity of hGHRH(1-29) NH2 was tested in each experiment to assess the validity of the assay and determine the relative affinity of the analogs.
# Values represent the mean±SEM of 3 experiments performed in triplicate for the analogs and the mean±SEM of 2 experiments performed in triplicate for hGHRH(1-44) NH2.
# For the binding assay results presented in Tables 8 to 11, values represent the mean±SEM of 8 independent experiments performed in triplicate for the analogs and the mean±SEM of 4 experiments performed in triplicate for hGHRH(1-29)NH2. […] The relative affinity was obtained by taking the ratio IC50 of hGHRH (1-29)-NH2/IC50 analog.
# [1] = In vitro proteolysis assay in rat serum; type: in vitro ADME; details: for Residual concentration (% of initial concentration): incubation 0 min
# Method: (§2) Proteolysis was stopped by adding 800 μl of ice-cold stop buffer (potassium-phosphate buffer, acidified to pH 0.8 with trifluoroacetic acid (TFA) and boiling 5 min (rat serum only). After centrifugation (12000 g, 5 min, 4° C.) (rat serum only), serum-peptide mixtures were passed through a conditioned Sep-Pak C-18 cartridge to extract native GHRH or a GHRH analog residual concentrations from serum proteins. The native GHRH or the analog was eluted in 2 ml of 50% acetonitrile-0.01% TFA/50% 0.01% aqueous TFA. 200 μl of extracted peptide, representing 1 μg of GHRH or analog at time 0, was quantified by analytical HPLC, using one μ-Bondapak C18 column (10 μm particle size, 0.39×15 cm) (rat serum) or two C18 columns in series (human serum and plasma) and a binary solvent system composed of NaClO4 0.01 M, pH 2.5 and acetonitrile. A linear gradient from 30 to 60% acetonitrile over 45 min (rat serum) or 30 to 50% (human serum and plasma) was used. Elution of intact peptide was monitored at 214 nm and residual concentration determined by assessment of peak surface areas.
# [2] = molecular target: T2, hGHRH(1-44)-NH2 binding sites in rat anterior pituitary (Rattus norvegicus, UniProt Q02644); experiment: Relative binding affinity in rat anterior pituitary preparations, [125I-Tyr10]hGHRH(1-44)-NH2 radioligand; details: values compared to hGHRH(1-29)-NH2
# T2 construct: from tissue; host or cells: anterior pituitary of 2-month old male Sprague Dawley rats
# T2 sequence (Q02644 23-423 isoform Q02644-2 limits assumed): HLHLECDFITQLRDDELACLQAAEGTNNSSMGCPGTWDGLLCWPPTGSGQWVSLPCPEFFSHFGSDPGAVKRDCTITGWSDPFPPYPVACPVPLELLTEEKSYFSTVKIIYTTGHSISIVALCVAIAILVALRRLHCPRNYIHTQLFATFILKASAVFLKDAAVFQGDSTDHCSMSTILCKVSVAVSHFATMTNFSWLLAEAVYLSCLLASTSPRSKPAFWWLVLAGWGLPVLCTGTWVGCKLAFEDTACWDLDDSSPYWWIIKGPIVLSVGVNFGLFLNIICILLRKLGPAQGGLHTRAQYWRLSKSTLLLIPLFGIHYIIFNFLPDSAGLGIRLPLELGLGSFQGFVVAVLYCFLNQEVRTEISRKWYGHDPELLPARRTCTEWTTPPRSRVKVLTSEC
# From the text: Initial selection of a candidate from the original 14 polysubstituted GHRH analogs described in the U.S. Pat. No. 5,854,216 was based upon in vitro data on receptor affinity in 2-month old male Sprague Dawley rat anterior pituitary preparations. The embodiments are based on the affinity of selected GHRH analogs for the human GHRH receptor (hGHRH-R) in baby hamster kidney (BHK) cells transfected with hGHRH-R, and on resistance to proteolysis in rat serum, human plasma or human serum. More precisely, the preferred drug candidates were selected, as compared to hGHRH(1-29)-NH2, for: i-their increased relative binding affinity to hGHRH(1-44)-NH2 binding sites in rat anterior pituitary in vitro as well as to hGHRH-R in BHK-expressing cells in vitro; and ii-their relative resistance to proteolysis in vitro.
# [3] = In vitro proteolysis assay in human serum; type: in vitro ADME; details: human serum
# Method: as §2
# rat GHRH receptor (rat) = rat GHRH receptor (rat) (UniProt Q02644); experiment: competition with [125I-Tyr10]hGHRH(1-44)-NH2, rat anterior pituitary membrane preparations
# [4] = molecular target: human GHRH receptor (human) (UniProt Q02643); experiment: competition with [125I-Tyr10]hGHRH(1-44)NH2, BHK cell membrane preparations expressing the human GHRH receptor; details: for Relative binding affinity (R1) in comparison with hGHRH(1-29)NH2: scale: ratio IC50 of hGHRH
# Canine Growth Hormone = experiment: In vivo GH secretion in a male Beagle dog, escalating SC doses, RIA; details: 0.01 mg/kg BW SC
# From the text: In order to assess such use of the GHRH analogs, the following experiments were undertaken. […] The above GHRH analog is a variation of a synthetic acetate salt of an amidated synthetic 29-amino acid peptide that corresponds to the amino-terminal segment of the naturally-occurring human growth hormone—releasing hormone (GHRH) with four amino acid substitutions in positions 2, 10, 15, and 22.
# Prior to administration, all dosing formulations were filtered using a 0.22 μm filter to ensure sterility. […] Dosing started at approximately the same time each day, commencing at 9:00 am ±30 minutes.
# (§1) For pharmacodynamic investigations, blood samples (approximately 1.0 ml) were collected from the dog on each treatment day via a jugular venipuncture at the following time points: pre-dose, 7, 15, 22, 30, 45, and 60 minutes post dosing. All blood samples were collected into potassium EDTA tubes and centrifuged under refrigeration (2 to 8° C., 1500 g for 10 minutes).
# Plasma GH was determined by Linco Diagnostic Services using their own kit. Linco's Porcine/Canine Growth Hormone radioimmunoassay kit (RIA) (PGH-46HK) has been developed to quantitate Growth Hormone in plasma, serum, and tissue culture media. It is a completely homologous assay since the antibody was raised against recombinant Porcine Growth Hormone and both the standard and tracer are prepared with recombinant Porcine Growth Hormone. Since the amino acid sequences of Porcine Growth Hormone and Canine Growth Hormone are identical, this assay developed for Porcine Growth Hormone measures Canine Growth Hormone levels with equal efficiency. All components are included (standards, antibody, tracer, quality controls, precipitating reagents and buffer) necessary to complete a RIA. The assay was conducted under the following conditions: overnight; equilibrium incubation at room temperature; sample volume: 100 μl serum, plasma, or cell culture media.
# Rat Growth Hormone = experiment: In vivo GH secretion in adult female Sprague-Dawley rats, single SC or IV injection, RIA; details: 0.03 mg/kg BW IV
# Method: In order to assess such use of the GHRH analogs, the following experiments were undertaken. More specially, the goal was to assess the pharmacodynamic and pharmacokinetic profiles and acute toxicity of GHRH analog #5 when administered once by subcutaneous or intravenous injection to female Sprague-Dawley rats followed by a 14-day observation period and the pharmacodynamic profile in a male Beagle dog when the GHRH analog was administered at escalating doses to the same dog by subcutaneous injection with at least 2-day washout period. The above GHRH analog is a variation of a synthetic acetate salt of an amidated synthetic 29-amino acid peptide that corresponds to the amino-terminal segment of the naturally-occurring human growth hormone—releasing hormone (GHRH) with four amino acid substitutions in positions 2, 10, 15, and 22.
# Human GHRH analog #5 in 0.9% sodium chloride for injection USP was administered once either by intravenous (IV) or subcutaneous (SC) injection to female rats followed by a 14-day observation period, as shown in Table 2. Prior to administration, all dosing formulations were filtered using a 0.22 μm filter to ensure sterility. The actual amount of GHRH analog #5 administered was calculated and adjusted based on the animal's most recent body weight. Dosing started at approximately the same time each day, commencing at 9:00 am ±30 minutes.
# as §1, with “1.3” for “1.0”, “2 animals per group per time point (maximum 3 time points/animal)” for “the dog on each treatment day”, “pre-dose, 7, 15, 22, 30, 45, and 60 minutes post dosing.” left out
# Rat Growth Hormone Determination • Plasma GH was determined by Linco Diagnostic Services using their own kit. Linco's Rat Growth Hormone radioimmunoassay kit (RIA) (RGH-45HK) is intended for the quantitative determination of Rat Growth Hormone in serum, plasma, and tissue culture media. It is a completely homologous assay since the antibody was raised against recombinant Rat Growth Hormone and both the tracer and the standard are prepared with the same recombinant Rat Growth Hormone. The kit includes standards, antibody, tracer, quality controls, precipitating reagents and buffer necessary to complete a RIA. The assay was conducted under the following conditions: overnight; equilibrium incubation at room temperature; sample volume: 100 μl serum, plasma, or cell culture media. The label used was 125I-Rat Growth Hormone (20,000 CPM/tube).
compound,measurement,setting,value
"CC[C@H](C)[C@H](NC(=O)[C@H](C)NC(=O)[C@H](CC(=O)O)NC(=O)[C@@H](C)NC(=O)[C@@H](N)Cc1ccc(O)cc1)C(=O)N[C@@H](Cc1ccccc1)C(=O)N[C@H](C(=O)N[C@@H](C)C(=O)N[C@@H](CO)C(=O)N[C@@H](Cc1ccc(O)cc1)C(=O)N[C@@H](CCCNC(=N)N)C(=O)N[C@@H](CCCCN)C(=O)N[C@H](C(=O)N[C@@H](CC(C)C)C(=O)N[C@@H](C)C(=O)N[C@@H](CCC(N)=O)C(=O)N[C@@H](CC(C)C)C(=O)N[C@@H](CO)C(=O)N[C@@H](C)C(=O)N[C@@H](CCCNC(=N)N)C(=O)N[C@@H](CCCCN)C(=O)N[C@@H](CCCCN)C(=O)N[C@@H](CC(C)C)C(=O)N[C@@H](CCC(N)=O)C(=O)N[C@@H](CC(=O)O)C(=O)N[C@H](C(=O)N[C@@H](CCSC)C(=O)N[C@@H](CO)C(=O)N[C@@H](CCCNC(=N)N)C(N)=O)[C@@H](C)CC)C(C)C)[C@@H](C)O [GHRH analog #1, [D-Ala^2, Ala^8, Ala^15, Lys^22] hGHRH(1-29)-NH2] (H-Y[dA]DAIFTASYRKVLAQLSARKKLQDIMSR-NH2; N-terminus assumed)",Relative binding affinity (R1) in hGHRH-R BHK-expressing cells,human GHRH receptor,499 ± 234
same,Relative resistance to proteolysis in vitro,[1]; compared to hGHRH(1-29)-NH2,1.87
same,Residual concentration (% of initial concentration),[1],100 ± 0 % of initial concentration
same,Relative binding affinity in rat anterior pituitary,[2],13.33 ± 0.31
"CC[C@H](C)[C@H](NC(=O)[C@H](C)NC(=O)[C@H](CC(=O)O)NC(=O)[C@H](C)NC(=O)[C@@H](N)Cc1ccc(O)cc1)C(=O)N[C@@H](Cc1ccccc1)C(=O)N[C@H](C(=O)N[C@@H](CC(N)=O)C(=O)N[C@@H](CO)C(=O)N[C@@H](Cc1ccc(O)cc1)C(=O)N[C@@H](CCCNC(=N)N)C(=O)N[C@@H](CCCCN)C(=O)N[C@H](C(=O)N[C@@H](CC(C)C)C(=O)NCC(=O)N[C@@H](CCC(N)=O)C(=O)N[C@@H](CC(C)C)C(=O)N[C@@H](CO)C(=O)N[C@@H](C)C(=O)N[C@@H](CCCNC(=N)N)C(=O)N[C@@H](CCCCN)C(=O)N[C@@H](CC(C)C)C(=O)N[C@@H](CC(C)C)C(=O)N[C@@H](CCC(N)=O)C(=O)N[C@@H](CC(=O)O)C(=O)N[C@H](C(=O)N[C@@H](CCSC)C(=O)N[C@@H](CO)C(=O)N[C@@H](CCCNC(=N)N)C(N)=O)[C@@H](C)CC)C(C)C)[C@@H](C)O [hGHRH(1-29)NH2, reference compound]",Mean residual amount (%),[3]; IT 0 min,100%
same,Mean residual amount (%),[3]; IT 420 min,disappeared totally
same,Residual concentration (% of initial concentration),[1],100 ± 0 % of initial concentration
"[Ala8, Ala9, Ala15, Ala22] hGHRH(1-29)-NH2 (peptide)",Relative binding affinity in rat anterior pituitary (relative to hGHRH(1-29)-NH2),rat GHRH receptor (rat),7.74
same,IC50,[4],0.77 nM
same,Relative binding affinity (R1) in comparison with hGHRH(1-29)NH2,[4],3.7
"[D-Ala2, Ala8, Ala15, Lys22] hGHRH(1-29)-NH2 (peptide)",Relative binding affinity in rat anterior pituitary (relative to hGHRH(1-29)-NH2),rat GHRH receptor (rat),13.3
same,IC50,[4],0.033 nM
same,Relative binding affinity (R1) in comparison with hGHRH(1-29)NH2,[4],499
"[D-Ala2, Ala8, D-Tyr10, Ala15, D-Lys21, Lys22] hGHRH(1-29)-NH2 (peptide)",Relative binding affinity in rat anterior pituitary (relative to hGHRH(1-29)-NH2),rat GHRH receptor (rat),5
same,IC50,[4],37 nM
same,Relative binding affinity (R1) in comparison with hGHRH(1-29)NH2,[4],0.05
"[D-Ala2, D-Tyr10, Lys22] hGHRH(1-29)-NH2 (peptide)",Relative binding affinity in rat anterior pituitary (relative to hGHRH(1-29)-NH2),rat GHRH receptor (rat),4.9
same,IC50,[4],0.0063 nM
same,Relative binding affinity (R1) in comparison with hGHRH(1-29)NH2,[4],239
hGHRH(1-44)NH2 [reference compound],Canine Growth Hormone,Canine Growth Hormone; 0 min,5 ng/mL
same,Canine Growth Hormone,Canine Growth Hormone; 7 min,1 ng/mL
same,Canine Growth Hormone,Canine Growth Hormone; 15 min,1.99 ng/mL
same,Canine Growth Hormone,Canine Growth Hormone; 22 min,4 ng/mL
same,Canine Growth Hormone,Canine Growth Hormone; 30 min,5 ng/mL
same,Canine Growth Hormone,Canine Growth Hormone; 45 min,3 ng/mL
same,Canine Growth Hormone,Canine Growth Hormone; 60 min,1.99 ng/mL
same,Plasma Rat Growth Hormone,Rat Growth Hormone; 4 min,43.7 ng/mL
same,Plasma Rat Growth Hormone,Rat Growth Hormone; 10 min,83.9 ng/mL
same,Plasma Rat Growth Hormone,Rat Growth Hormone; 15 min,27.9 ng/mL
same,Plasma Rat Growth Hormone,Rat Growth Hormone; 45 min,14.1 ng/mL
same,Plasma Rat Growth Hormone,Rat Growth Hormone; 300 min,21.7 ng/mL
same,GH AUC 45 min,Rat Growth Hormone; in ng·min/mL (unit assumed),1380
same,GH AUC 300 min,Rat Growth Hormone; in ng·min/mL (unit assumed),5754
same,Plasma Rat Growth Hormone,Rat Growth Hormone; −120 min,20.2 ng/mL

# Source: patent US20090088380A1, “GHRH ANALOGS AND THERAPEUTIC USES THEREOF” (priority 2007, published 2009)
